# Laboratory results as given in patent US20140294856A1, “COMBINATION TREATMENT COMPRISING A HDAC6 INHIBITOR AND AN AKT INHIBITOR” (priority 2011, published 2014).
# Read-outs that look alike come from different tables or passages of the source.
# What was measured:
# ABCG2 = target: T1, ABCG2 (Homo sapiens, UniProt Q9UNQ0)
# T1 sequence (Q9UNQ0 1-655): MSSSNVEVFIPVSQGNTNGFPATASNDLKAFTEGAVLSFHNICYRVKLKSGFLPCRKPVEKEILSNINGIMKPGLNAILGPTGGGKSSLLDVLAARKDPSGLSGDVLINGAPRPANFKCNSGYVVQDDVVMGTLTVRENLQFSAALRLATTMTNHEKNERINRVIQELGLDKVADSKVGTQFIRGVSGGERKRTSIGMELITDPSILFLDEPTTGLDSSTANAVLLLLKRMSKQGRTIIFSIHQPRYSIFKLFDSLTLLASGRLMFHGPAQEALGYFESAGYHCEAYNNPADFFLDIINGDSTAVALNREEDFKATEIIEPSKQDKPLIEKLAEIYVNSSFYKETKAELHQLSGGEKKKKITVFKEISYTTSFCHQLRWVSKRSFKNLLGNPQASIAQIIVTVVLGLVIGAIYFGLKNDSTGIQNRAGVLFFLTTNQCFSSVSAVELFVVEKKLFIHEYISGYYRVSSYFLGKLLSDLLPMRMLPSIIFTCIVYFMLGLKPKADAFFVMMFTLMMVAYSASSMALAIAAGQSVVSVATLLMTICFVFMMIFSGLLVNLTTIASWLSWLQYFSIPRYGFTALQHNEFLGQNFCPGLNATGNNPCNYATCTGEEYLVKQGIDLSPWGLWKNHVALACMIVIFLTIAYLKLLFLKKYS
# P-gp = P-gp (Homo sapiens, UniProt P08183); details: mouse
# HCT116 cells [1] = assay: Combination studies, SRB assay, combination index (CalcuSyn); assay type: cell-based, human
# HCT116 cells [2] = assay: Phospho-AKT levels by western blotting; assay type: cell-based, human; details: for IC50: Homo sapiens, HCT-116
# [3] = test system: HCT116 human colon cancer xenograft; details: BEZ-235 alone 20 mg/kg/d
# HCT116 tumours = assay: Phospho-AKT levels in HCT116 tumours; assay type: in vivo, mice; details: single injection 25 mg/kg
# MRP1 = MRP1 (Homo sapiens, UniProt P33527); assay: Impact of MRP1 on cytotoxicity, MK-571 pre-treatment in A549 cells
# Method: The impact of ABC transporters on the cytotoxicity of HDAC-C1A was assessed using cell lines with differential expression of the ABC transporters and by using inhibitors.
# in vitro = details: human, Caco-2
# A2780 cells = assay: Impact of glutathione co-incubation on survival; details: compound 1 μM
# HCT116 cells [4] = assay: Acetylation biomarkers by western blotting (with washout); assay type: cell-based, human
# Method: FIG. 1. HDAC-C1A irreversible activity. A. […] inhibitory activity of HDAC-C1A was tested using HeLa nuclear extracts and compared to the negative (reversible) control HDAC-C1B. B Growth inhibitory effect of the different compounds in HCT-116 cells at indicated time and compared to growth inhibitory after 72 hours of incubation.
# HSP90 protein expression was not altered (FIG. 2).
# HCT116 cells [5] = assay: Acetylated PTEN and PTEN expression; assay type: cell-based, human
# Method: FIG. 12. HDAC-C1A treatment is associated with an increase of phopsho-AKT that can be reversed by PI3K/AKT/mTOR inhibitors. […] Similarly, Phospho-Pras 40 seems to increase following treatment with HDAC-C1A. Densitometry data could reinforce this statement (ratio between the total form and the Phospho form of Pras40 that decreases at 24 hours). […] No difference could be seen in endometrial cancer cell line, […]. C. […] E. BEZ-235 can fully reverse the increase of Phospho-AKT mediated by HDAC-C1A in HCT-116 cells. BEZ-235 and HDAC-C1A were co-incubated at the indicated time and concentrations.
# FIG. 17. A. Dose and time impact of Tubastatin A on acetylated form of tubulin and histones H3 and H4 and on phospho-AKT levels that could be reversed with BEZ-235 in HCT-116 cells. […] HCT116 were immunoprecipitation with PTEN and stained with HDAC1 or HDAC6, immunoprecipitation with HDAC6 and stained with PTEN. No HDAC1 could have been detected in contrast with HDAC6. There was no effect of the different inhibitors on the different protein levels.
# PTEN protein expression was not altered. In vivo, on the gene array, the mRNA levels of PTEN were not altered in HCT116 xenograft model following treatment with HDAC-C1A after 1 and 14 days when compared with vehicle treated group (FIG. 7).
# We have shown that HDAC-C1A is associated with increased acetylation of α-tubulin, acetyl HSP90 and acetyl PTEN with only a minor effect on the regulation of the genes (less than 0.7% of the genes have been de-regulated after 14 days of treatment in vivo). We believe that the acetylation of PTEN, via the inhibition of HDAC6, leads to an increase of P-AKT. […] No effect of BEZ235 could be seen on the acetylated status of α-tubulin and histones H3 and H4.
# A549 cells = assay: Impact of BSO (GSH depletion) on growth inhibition, SRB assay; assay type: cell-based; details: 10 μM BSO for 24 hours
# [6] = test system: CHO cells deficient in DNA repair; assay: Growth inhibition in cell lines deficient in DNA repair machinery; assay type: cell-based
# [7] = Cytotoxicity of compounds of the invention (data not shown); assay type: cell-based
# Description: HDAC-C1B also appears to be a promising drug candidate.
# [8] = homologous recombination repair
# Sequence of P-gp (P08183 whole entry): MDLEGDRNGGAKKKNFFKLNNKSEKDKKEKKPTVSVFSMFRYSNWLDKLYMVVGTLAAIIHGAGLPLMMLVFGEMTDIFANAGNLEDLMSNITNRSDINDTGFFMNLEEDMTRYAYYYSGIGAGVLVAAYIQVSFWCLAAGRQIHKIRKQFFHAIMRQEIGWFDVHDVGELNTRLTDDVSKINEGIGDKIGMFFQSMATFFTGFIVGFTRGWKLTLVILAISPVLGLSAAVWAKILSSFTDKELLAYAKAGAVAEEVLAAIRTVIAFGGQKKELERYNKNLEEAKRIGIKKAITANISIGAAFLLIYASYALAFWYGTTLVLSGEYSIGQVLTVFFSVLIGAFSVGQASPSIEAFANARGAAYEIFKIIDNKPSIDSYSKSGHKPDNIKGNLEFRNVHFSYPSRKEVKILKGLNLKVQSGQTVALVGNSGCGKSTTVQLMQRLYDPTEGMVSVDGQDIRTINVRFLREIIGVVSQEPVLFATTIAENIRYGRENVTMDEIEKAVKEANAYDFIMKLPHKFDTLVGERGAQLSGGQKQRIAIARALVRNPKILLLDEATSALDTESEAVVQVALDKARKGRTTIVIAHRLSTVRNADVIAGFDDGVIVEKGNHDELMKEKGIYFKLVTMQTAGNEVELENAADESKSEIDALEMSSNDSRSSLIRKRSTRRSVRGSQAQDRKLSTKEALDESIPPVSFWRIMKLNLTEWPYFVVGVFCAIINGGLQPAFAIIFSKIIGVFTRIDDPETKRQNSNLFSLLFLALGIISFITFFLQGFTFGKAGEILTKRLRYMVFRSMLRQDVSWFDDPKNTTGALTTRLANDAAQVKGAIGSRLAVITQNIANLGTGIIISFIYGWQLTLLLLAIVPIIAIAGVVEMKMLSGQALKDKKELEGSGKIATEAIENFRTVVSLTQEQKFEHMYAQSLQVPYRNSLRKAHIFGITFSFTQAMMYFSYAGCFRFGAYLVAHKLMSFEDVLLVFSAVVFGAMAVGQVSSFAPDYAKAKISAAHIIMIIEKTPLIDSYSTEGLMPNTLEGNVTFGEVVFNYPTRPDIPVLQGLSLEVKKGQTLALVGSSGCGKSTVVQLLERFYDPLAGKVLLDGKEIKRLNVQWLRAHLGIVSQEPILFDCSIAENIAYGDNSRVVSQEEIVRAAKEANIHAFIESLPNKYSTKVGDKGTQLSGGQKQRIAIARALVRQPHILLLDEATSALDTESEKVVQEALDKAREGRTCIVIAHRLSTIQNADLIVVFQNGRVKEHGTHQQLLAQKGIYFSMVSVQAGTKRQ
# Sequence of MRP1 (P33527 whole entry): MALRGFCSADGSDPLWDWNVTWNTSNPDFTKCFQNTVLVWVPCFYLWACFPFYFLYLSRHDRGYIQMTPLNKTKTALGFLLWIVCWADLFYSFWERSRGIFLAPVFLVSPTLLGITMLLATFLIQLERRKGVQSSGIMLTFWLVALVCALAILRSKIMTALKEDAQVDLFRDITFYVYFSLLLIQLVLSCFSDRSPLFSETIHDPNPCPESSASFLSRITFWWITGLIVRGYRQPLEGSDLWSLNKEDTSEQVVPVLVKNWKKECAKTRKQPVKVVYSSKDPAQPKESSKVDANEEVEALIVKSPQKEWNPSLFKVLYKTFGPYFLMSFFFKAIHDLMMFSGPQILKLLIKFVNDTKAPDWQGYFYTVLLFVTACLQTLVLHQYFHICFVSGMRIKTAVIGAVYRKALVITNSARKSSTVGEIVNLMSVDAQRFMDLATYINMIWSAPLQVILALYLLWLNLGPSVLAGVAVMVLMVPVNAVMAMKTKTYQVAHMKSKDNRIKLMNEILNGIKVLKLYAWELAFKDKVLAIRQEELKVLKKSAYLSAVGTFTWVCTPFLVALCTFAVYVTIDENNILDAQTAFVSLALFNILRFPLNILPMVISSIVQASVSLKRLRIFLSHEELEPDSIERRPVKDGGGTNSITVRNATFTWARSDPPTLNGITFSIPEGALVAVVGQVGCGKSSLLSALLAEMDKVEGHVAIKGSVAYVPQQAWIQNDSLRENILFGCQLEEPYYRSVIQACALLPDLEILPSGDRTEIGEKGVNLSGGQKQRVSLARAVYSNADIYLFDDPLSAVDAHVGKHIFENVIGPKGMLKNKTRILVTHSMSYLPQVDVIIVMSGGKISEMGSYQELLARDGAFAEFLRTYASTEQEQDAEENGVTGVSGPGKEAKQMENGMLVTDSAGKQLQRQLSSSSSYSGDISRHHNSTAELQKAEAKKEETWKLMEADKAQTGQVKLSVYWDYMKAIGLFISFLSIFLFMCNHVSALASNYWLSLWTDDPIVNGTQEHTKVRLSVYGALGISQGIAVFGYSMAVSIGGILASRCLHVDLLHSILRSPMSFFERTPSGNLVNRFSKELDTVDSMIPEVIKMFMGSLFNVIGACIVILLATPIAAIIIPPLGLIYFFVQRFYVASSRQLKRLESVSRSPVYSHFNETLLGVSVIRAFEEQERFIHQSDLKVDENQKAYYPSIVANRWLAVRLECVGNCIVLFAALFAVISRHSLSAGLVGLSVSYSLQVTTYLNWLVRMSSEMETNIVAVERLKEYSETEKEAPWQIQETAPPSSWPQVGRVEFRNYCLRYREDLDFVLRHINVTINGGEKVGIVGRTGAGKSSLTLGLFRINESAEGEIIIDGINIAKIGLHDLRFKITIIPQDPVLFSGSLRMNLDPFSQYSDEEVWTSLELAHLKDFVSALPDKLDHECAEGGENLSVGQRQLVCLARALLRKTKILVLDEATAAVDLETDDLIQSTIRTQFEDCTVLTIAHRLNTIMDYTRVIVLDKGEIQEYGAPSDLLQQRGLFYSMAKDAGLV
smiles,measurement,setting,value
O=C1c2c(O)ccc(O)c2C(=O)c2c(NCCNCCO)ccc(NCCNCCO)c21 [mitoxantrone],fold resistance (GI50 ratio) MCF7-MX vs parental MCF7,ABCG2,120 fold
same,reversal of resistance by FTC in MCF7-MX cells,ABCG2,70 fold
CC[C@]1(O)C[C@@H]2CN(CCc3c([nH]c4ccccc34)[C@@](C(=O)OC)(c3cc4c(cc3OC)N(C)[C@H]3[C@@](O)(C(=O)OC)[C@H](OC(C)=O)[C@]5(CC)C=CCN6CC[C@]43[C@@H]65)C2)C1 [vinblastine],fold resistance (GI50 ratio) P-gp over-expressing 3T3 vs parental,P-gp,> 100 fold
O=c1[nH]cc(F)c(=O)[nH]1 [5FU],combination effect with HDAC-C1A on growth inhibition,"HCT116 cells [1]; HCT116, 72 hours",additive effect
Cn1c(=O)n(-c2ccc(C(C)(C)C#N)cc2)c2c3cc(-c4cnc5ccccc5c4)ccc3ncc21 [BEZ-235],"P-AKT levels, single agent",HCT116 cells [2],dose dependent decrease
same,IC50,"HCT116 cells [2]; 4 hours treatment, read-out: IC50 for inhibition of P-AKT",10 nM
same,IC50,"HCT116 cells [2]; added to Tubastatin A, read-out: IC50 for reversal of Tubastatin A-induced P-AKT",10 nM
same,IC50,"HCT116 cells [2]; combined with 10 μM HDAC-C1A, read-out: IC50 for P-AKT when combined with HDAC-C1A",50 nM
same,effect on acetylated status of α-tubulin and histones H3 and H4,HCT116 cells [2]; added to Tubastatin A,No effect
same,reversal of the increase of Phospho-AKT mediated by HDAC-C1A,HCT116 cells [2]; co-incubated with HDAC-C1A,fully reverse
same,combination effect with HDAC-C1A on growth inhibition,"HCT116 cells [1]; HCT116, 72 hours",Synergistic effect
same,TGD2x,[3],3.4 ± 1.9 days
same,TGI,[3],21%
same,P-AKT in tumours,HCT116 tumours; 2 hours after treatment,Persistent inhibition
same,P-AKT in tumours,HCT116 tumours; by 30 minutes,rapid down-regulation
same,P-AKT in tumours,HCT116 tumours; from 6 hours post treatment,partial recovery to basal levels
"O=C(CCCCCCC(=O)Nc1ccccc1)NO [SAHA, suberanoyl hydroxamic acid, reference compound]",substrate of MRP1,MRP1,non-substrates
same,effect on P-AKT,HCT116 cells [2]; 10 μM,no effect
same,Papp A→B,in vitro,14 ×10⁻⁶ cm/s
same,concentration of LY-294002 needed to synergise,HCT116 cells [1],greater than 4 μM
same,combination effect with rapamycin at ED50,HCT116 cells [1]; concentrations below 7.5 μM,antagonistic effect
same,effect of GSH on cytotoxicity,A2780 cells,antagonistic effect
same,acetylation markers at low concentration and early time point,HCT116 cells [4]; 1 μM and 4 hours,opposite
same,"acetylation of histone H3, H4 and α-tubulin after washout","HCT116 cells [4]; treatment 4 hours, then washout",lost by 4 h
same,acetyl form of PTEN,"HCT116 cells [5]; 4 h and 24 h, 1 μM and 10 μM",no effect
CN1CCc2c(c3ccccc3n2Cc2ccc(C(=O)NO)cc2)C1 [Tubastatin A],P-AKT,HCT116 cells [2]; Tubastatin A alone,time dependent increase
same,concentration of LY-294002 needed to synergise,HCT116 cells [1],0.1 µM
same,combination effect with inhibitors of the PI3K/AKT/mTOR pathway,"HCT116 cells [1]; HCT116, 72 hours",synergises as well
same,acetylated form of PTEN,HCT116 cells [5]; 24 hours of incubation,dose dependent increase
CC(C)C[C@H](NC(=O)[C@H](Cc1ccccc1)NC(=O)c1cnccn1)B(O)O [bortezomib],combination effect with HDAC-C1A on growth inhibition,"HCT116 cells [1]; HCT116, 72 hours",Synergistic effect
CN(C)CC[C@H](CSc1ccccc1)Nc1ccc(S(=O)(=O)NC(=O)c2ccc(N3CCN(Cc4ccccc4-c4ccc(Cl)cc4)CC3)cc2)cc1[N+](=O)[O-] [ABT-737],combination effect with HDAC-C1A on growth inhibition,"HCT116 cells [1]; HCT116, 72 hours",Synergistic effect
"O=C(O)CCCc1ccc(N(CCCl)CCCl)cc1 [chlorambucil, reference compound]",impact of BSO on growth inhibition (GI50 ratio),A549 cells,8.5
same,sensitivity (GI50 ratio) of cells deficient in XRCC3 vs proficient,[6]; [8],7.8
same,"sensitivity (GI50 ratio, fold) of cells deficient in XRCC2 vs proficient",[6]; [8],> 100
same,"sensitivity (GI50 ratio, fold) of cells deficient in XRCC5 vs proficient",[6]; non homologous end joining,> 100
same,sensitivity (GI50 ratio) of cells deficient in ERCC1 vs proficient,[6]; nucleotide excision repair,> 100
CCN(CC)c1ccc(S(=O)(=O)Nc2ccc(/C=C(C)/C=C/C(=O)NO)cc2)cc1 [HDAC-C1B],cytotoxic potency relative to HDAC-C1A,[7],approximately 1.5 fold
COc1ccc(C2=N[C@@H](c3ccc(Cl)cc3)[C@@H](c3ccc(Cl)cc3)N2C(=O)N2CCNC(=O)C2)c(OC(C)C)c1 [Nutlin-3],combination effect with HDAC-C1A on growth inhibition,"HCT116 cells [1]; HCT116, 72 hours",additive effect
